Assay results as given in patent US12358912B2 (ASCENTAGE PHARMA (SUZHOU) CO., LTD., priority 2020, dated 2025).

Columns and labels:
[1] = Stability test (2): salt crystalline forms at high temperature, high humidity and light, detection by HPLC and XRPD; format: physicochemical; conditions: for total impurities (%): HPLC
[2] = Evaluation of hygroscopicity by Dynamic Moisture Sorption Analyzer (DVS), with XRPD before and after DVS; format: physicochemical; conditions: for weight increase by hygroscopy (80% RH): DVS; for XRPD change: XRPD before and after DVS
[3] = light (RT, white light 6980 lux, UV 282 μW/cm2), 5 days
[4] = light (RT, white light 6980 lux, UV 282 μW/cm2), 10 days
[5] = 60° C. (open), 5 days, listed as XL
[6] = 60° C. (open), 10 days, listed as XL
[7] = 60° C. (open), 30 days, listed as XL
[8] = light (RT, white light 6980 lux, UV 282 μW/cm2), 5 days, listed as XL
[9] = light (RT, white light 6980 lux, UV 282 μW/cm2), 10 days, listed as XL

CS(=O)(=O)O.O=C(NS(=O)(=O)c1ccc(NC[C@H]2COCCO2)c([N+](=O)[O-])c1)c1ccc(N2CCN(CC3=C(c4ccc(Cl)cc4)CC4(CCC4)CC3)CC2)cc1Oc1cnc2[nH]ccc2c1 [XXXIII]
total impurities (%) ([1]; 60° C. (open), 5 days): 0.90% | total impurities (%) ([1]; 60° C. (open), 10 days): 0.91% | total impurities (%) ([1]; 60° C. (open), 30 days): 1.11% | total impurities (%) ([1]; RT/75% RH (open), 5 days): 0.67% | total impurities (%) ([1]; RT/75% RH (open), 10 days): 0.71% | total impurities (%) ([1]; RT/75% RH (open), 30 days): 0.70% | total impurities (%) [1, 3]: 0.84% | total impurities (%) [1, 4]: 1.09% | total impurities (%) ([1]; the initial sample, 0 day): 0.67% | XPRD [1, 3]: No change | XPRD [1, 4]: No change | XPRD ([1]; the initial sample, 0 day): XXXIII | weight increase by hygroscopy (80% RH) [2]: 7.82% | XRPD change [2]: changed

Cc1ccc(S(=O)(=O)O)cc1.O=C(NS(=O)(=O)c1ccc(NC[C@H]2COCCO2)c([N+](=O)[O-])c1)c1ccc(N2CCN(CC3=C(c4ccc(Cl)cc4)CC4(CCC4)CC3)CC2)cc1Oc1cnc2[nH]ccc2c1 [XXIX]
XPRD ([1]; 60° C. (open), 5 days): No change | XPRD ([1]; 60° C. (open), 10 days): No change | XPRD ([1]; 60° C. (open), 30 days): No change | total impurities (%) ([1]; 60° C. (open), 5 days): 0.64% | total impurities (%) ([1]; 60° C. (open), 10 days): 0.65% | total impurities (%) ([1]; 60° C. (open), 30 days): 0.66% | total impurities (%) ([1]; RT/75% RH (open), 5 days): 0.65% | total impurities (%) ([1]; RT/75% RH (open), 10 days): 0.65% | total impurities (%) ([1]; RT/75% RH (open), 30 days): 0.60% | total impurities (%) [1, 3]: 0.64% | total impurities (%) [1, 4]: 0.59% | total impurities (%) ([1]; the initial sample, 0 day): 0.65% | XPRD ([1]; RT/75% RH (open), 5 days): No change | XPRD ([1]; RT/75% RH (open), 10 days): No change | XPRD ([1]; RT/75% RH (open), 30 days): No change | XPRD [1, 3]: No change | XPRD [1, 4]: No change | XPRD ([1]; the initial sample, 0 day): XXIX | weight increase by hygroscopy (80% RH) [2]: 0.948% | XRPD change [2]: no change

O=C(NS(=O)(=O)c1ccc(NC[C@H]2COCCO2)c([N+](=O)[O-])c1)c1ccc(N2CCN(CC3=C(c4ccc(Cl)cc4)CC4(CCC4)CC3)CC2)cc1Oc1cnc2[nH]ccc2c1.O=S(=O)(O)c1ccccc1 [XXVII]
XPRD ([1]; 60° C. (open), 5 days): No change | XPRD ([1]; 60° C. (open), 10 days): No change | XPRD ([1]; 60° C. (open), 30 days): No change | total impurities (%) ([1]; 60° C. (open), 5 days): 1.26% | total impurities (%) ([1]; 60° C. (open), 10 days): 1.37% | total impurities (%) ([1]; 60° C. (open), 30 days): 1.33% | total impurities (%) ([1]; RT/75% RH (open), 5 days): 1.22% | total impurities (%) ([1]; RT/75% RH (open), 10 days): 1.25% | total impurities (%) ([1]; RT/75% RH (open), 30 days): 1.27% | total impurities (%) [1, 3]: 1.20% | total impurities (%) [1, 4]: 1.28% | total impurities (%) ([1]; the initial sample, 0 day): 1.19% | XPRD ([1]; RT/75% RH (open), 5 days): No change | XPRD ([1]; RT/75% RH (open), 10 days): No change | XPRD ([1]; RT/75% RH (open), 30 days): No change | XPRD [1, 3]: No change | XPRD [1, 4]: No change | XPRD ([1]; the initial sample, 0 day): XXVII | weight increase by hygroscopy (80% RH) [2]: 3.32% | XRPD change [2]: no change

O=C(NS(=O)(=O)c1ccc(NC[C@H]2COCCO2)c([N+](=O)[O-])c1)c1ccc(N2CCN(CC3=C(c4ccc(Cl)cc4)CC4(CCC4)CC3)CC2)cc1Oc1cnc2[nH]ccc2c1.O=C(O)CC(O)(CC(=O)O)C(=O)O [XXXIX]
XPRD ([1]; 60° C. (open), 5 days): No change | XPRD ([1]; 60° C. (open), 10 days): No change | XPRD ([1]; 60° C. (open), 30 days): No change | total impurities (%) ([1]; 60° C. (open), 5 days): 0.90% | total impurities (%) ([1]; 60° C. (open), 10 days): 0.89% | total impurities (%) ([1]; 60° C. (open), 30 days): 0.86% | total impurities (%) ([1]; RT/75% RH (open), 5 days): 0.80% | total impurities (%) ([1]; RT/75% RH (open), 10 days): 0.82% | total impurities (%) ([1]; RT/75% RH (open), 30 days): 0.81% | total impurities (%) [1, 3]: 0.88% | total impurities (%) [1, 4]: 1.02% | total impurities (%) ([1]; the initial sample, 0 day): 0.76% | XPRD ([1]; RT/75% RH (open), 5 days): No change | XPRD ([1]; RT/75% RH (open), 10 days): No change | XPRD ([1]; RT/75% RH (open), 30 days): No change | XPRD [1, 3]: No change | XPRD [1, 4]: No change | XPRD ([1]; the initial sample, 0 day): XXXIX | weight increase by hygroscopy (80% RH) [2]: 0.37% | XRPD change [2]: no change

O=C(NS(=O)(=O)c1ccc(NCC2COCCO2)c([N+](=O)[O-])c1)c1ccc(N2CCN(CC3=C(c4ccc(Cl)cc4)CC4(CCC4)CC3)CC2)cc1Oc1cnc2[nH]ccc2c1 (stereo not drawn) [maleate crystalline Form XL]
XPRD [1, 5]: No change | XPRD [1, 6]: No change | XPRD [1, 7]: No change | total impurities (%) [1, 5]: 1.15% | total impurities (%) [1, 6]: 1.18% | total impurities (%) [1, 7]: 1.28% | total impurities (%) ([1]; RT/75% RH (open), 5 days, listed as XL): 0.93% | total impurities (%) ([1]; RT/75% RH (open), 10 days, listed as XL): 1.06% | total impurities (%) ([1]; RT/75% RH (open), 30 days, listed as XL): 0.90% | total impurities (%) [1, 8]: 1.08% | total impurities (%) [1, 9]: 1.18% | total impurities (%) ([1]; the initial sample, 0 day, listed as XL): 0.91% | XPRD ([1]; RT/75% RH (open), 5 days): No change | XPRD ([1]; RT/75% RH (open), 10 days): No change | XPRD [1, 8]: No change | XPRD [1, 9]: No change | weight increase by hygroscopy (80% RH) ([2]; listed as XL): 1.41% | XRPD change [2]: no change

O=C(NS(=O)(=O)c1ccc(NC[C@H]2COCCO2)c([N+](=O)[O-])c1)c1ccc(N2CCN(CC3=C(c4ccc(Cl)cc4)CC4(CCC4)CC3)CC2)cc1Oc1cnc2[nH]ccc2c1.O=C(O)/C=C\C(=O)O [XXIV]
XPRD ([1]; 60° C. (open), 5 days): No change | XPRD ([1]; 60° C. (open), 10 days): No change | XPRD ([1]; 60° C. (open), 30 days): No change | total impurities (%) ([1]; 60° C. (open), 5 days): 0.48% | total impurities (%) ([1]; 60° C. (open), 10 days): 0.48% | total impurities (%) ([1]; 60° C. (open), 30 days): 0.61% | total impurities (%) ([1]; RT/75% RH (open), 5 days): 0.50% | total impurities (%) ([1]; RT/75% RH (open), 10 days): 0.50% | total impurities (%) ([1]; RT/75% RH (open), 30 days): 0.50% | total impurities (%) [1, 3]: 0.73% | total impurities (%) [1, 4]: 0.72% | total impurities (%) ([1]; the initial sample, 0 day): 0.50% | XPRD ([1]; RT/75% RH (open), 5 days): No change | XPRD ([1]; RT/75% RH (open), 10 days): No change | XPRD ([1]; RT/75% RH (open), 30 days): No change | XPRD [1, 3]: No change | XPRD [1, 4]: No change | XPRD ([1]; the initial sample, 0 day): XXIV | weight increase by hygroscopy (80% RH) [2]: 1.246% | XRPD change [2]: changed

O=C(NS(=O)(=O)c1ccc(NC[C@H]2COCCO2)c([N+](=O)[O-])c1)c1ccc(N2CCN(CC3=C(c4ccc(Cl)cc4)CC4(CCC4)CC3)CC2)cc1Oc1cnc2[nH]ccc2c1.O=S(=O)(O)O [XXX]
XPRD ([1]; 60° C. (open), 5 days): No change | XPRD ([1]; 60° C. (open), 10 days): No change | XPRD ([1]; 60° C. (open), 30 days): No change | total impurities (%) ([1]; 60° C. (open), 5 days): 0.89% | total impurities (%) ([1]; 60° C. (open), 10 days): 0.92% | total impurities (%) ([1]; 60° C. (open), 30 days): 0.83% | total impurities (%) ([1]; RT/75% RH (open), 5 days): 0.82% | total impurities (%) ([1]; RT/75% RH (open), 10 days): 0.86% | total impurities (%) ([1]; RT/75% RH (open), 30 days): 0.74% | total impurities (%) [1, 3]: 0.82% | total impurities (%) [1, 4]: 1.02% | total impurities (%) ([1]; the initial sample, 0 day): 0.80% | XPRD ([1]; RT/75% RH (open), 5 days): No change | XPRD ([1]; RT/75% RH (open), 10 days): No change | XPRD ([1]; RT/75% RH (open), 30 days): No change | XPRD [1, 3]: No change | XPRD [1, 4]: No change | XPRD ([1]; the initial sample, 0 day): XXX | weight increase by hygroscopy (80% RH) [2]: 0.90% | XRPD change [2]: no change
